The values that follow come from ChEMBL document CHEMBL1128633, “Synthesis and pharmacokinetics of potent carbamate HIV-1 protease inhibitors containing novel high affinity hydroxyethylamine isosteres” (Bioorg Med Chem Lett, 1995).

pIC50: −log10 of the molar value.

Data set [1] concerns CEM-SS. The experiment in a line: Antiviral activity against HIV-1 infected HXB2/CEM-SS cell lines. Type of data set: functional. The conditions noted are these: Homo sapiens.
In data set [2] the target is Human immunodeficiency virus type 1 protease (Human immunodeficiency virus 1, UniProt Q72874). The experiment in a line: In vitro inhibition of HIV-1 protease.
Data set [3] in a line: Plasma half-life following oral administration in Fisher rats. Type of data set: ADME, organism-based. The conditions noted are these: rat.
A short description of data set [4]: Bioavailability in rat (Fisher) (fasted). Type of data set: ADME, organism-based. The conditions noted are these: in vivo.
The species entered for data set [5] is Rattus norvegicus. The experiment in a line: (§1) Compound was tested for the duration that the plasma drug concentrations remained above the IC95. Type of data set: ADME, organism-based. The conditions noted are these: in vivo.
The nature of data set [6]: Cmax value was determined between 15 and 30 minutes post administration in fisher rats; value ranges from 200-500. Type of data set: ADME, organism-based. The conditions noted are these: rat, in vivo.
Data set [7] can be described thus: Peak plasma level between 0.5 and 1.0 hour in Dawley rats; value ranges from 1021-2551. Format: ADME, organism-based. The conditions noted are these: Sprague-Dawley, rat, read-out: Plasma level.
Data set [8] in a line: as §1. Format: ADME, cell-free.
Data set [9] is described as follows: Plasma half-life following oral administration in fisher rats. Type of data set: ADME, organism-based. The conditions noted are these: rat.
The nature of data set [10]: Bioavailability in fasted fisher rats. Type of data set: ADME, organism-based. The conditions noted are these: rat, in vivo.

Turning to `CC(C)(C)NC(=O)[C@@H]1C[C@@H]2SCC[C@@H]2CN1C[C@@H](O)[C@H](CSc1ccccc1)NC(=O)O[C@H]1CCS(=O)(=O)C1`, it took 59 nM to reach the 95% level in data set [1] (IC95). Besides, the negative logarithm of the IC50 (pIC50) – broadly, the IC50 on a negative log10 scale, so that one unit is a factor of ten – in [2] is 8.77.

Consider `CC(C)[C@@H]1SCC[C@@H]1OC(=O)N[C@@H](Cc1ccccc1)[C@H](O)CN1C[C@H]2CCS[C@H]2C[C@H]1C(=O)NC(C)(C)C`, for which, in data set [1], it took 686 nM to reach the 95% level (IC95). Also, the pIC50 in data set [2] was 8.59.

As for `CC(C)(C)NC(=O)[C@@H]1C[C@@H]2CCCC[C@@H]2CN1C[C@@H](O)[C@H](Cc1ccccc1)NC(=O)[C@H](CC(N)=O)NC(=O)c1ccc2ccccc2n1`, the IC95 (as a rule, the point of the concentration-response curve where the effect stands at 95%) in [1] is 21 nM.

On to `CC(C)[C@@H]1[C@H](OC(=O)N[C@@H](Cc2ccccc2)[C@H](O)CN2C[C@H]3CCCC[C@H]3C[C@H]2C(=O)NC(C)(C)C)CCS1(=O)=O`, for which, in [1], the 95% effect level (IC95) was put at 85 nM. The pIC50 in data set [2] was 8.37.

As for `CC(C)[C@H]1[C@@H](OC(=O)N[C@@H](Cc2ccccc2)[C@H](O)CN2C[C@H]3CCCC[C@H]3C[C@H]2C(=O)NC(C)(C)C)CCS1(=O)=O`, the IC95 in [1] was 273 nM. The compound further gave a pIC50 in [2] of 8.09.

Compound `C[C@@H]1[C@H](OC(=O)N[C@@H](Cc2ccccc2)[C@H](O)CN2C[C@H]3CCCC[C@H]3C[C@H]2C(=O)NC(C)(C)C)CCS1(=O)=O` yielded an IC95 in data set [1] of 171 nM. Further, the pIC50 in data set [2] is 8.00.

With `CC(C)(C)NC(=O)[C@@H]1C[C@@H]2SCC[C@@H]2CN1C[C@@H](O)[C@H](CSc1ccccc1)NC(=O)O[C@@H]1CCS(=O)(=O)C1`, in data set [1], the 95% effect concentration (IC95) worked out at 59 nM. In [2], this compound had a pIC50 of 8.70.

In data set [1], `CC(C)[C@H]1[C@@H](OC(=O)N[C@@H](CSc2ccccc2)[C@H](O)CN2C[C@H]3CCS[C@H]3C[C@H]2C(=O)NC(C)(C)C)CCS1(=O)=O` showed an IC95 of 89 nM.

The compound `CC(C)[C@@H]1[C@H](OC(=O)N[C@@H](Cc2ccccc2)[C@H](O)CN2C[C@H]3CCS[C@H]3C[C@H]2C(=O)NC(C)(C)C)CCS1(=O)=O` displayed an IC95 in data set [1] of 38 nM. Moreover, the pIC50 in [2] is 8.89.

In [1], `C[C@H]1[C@H](OC(=O)N[C@@H](CSc2ccccc2)[C@H](O)CN2C[C@H]3CCS[C@H]3C[C@H]2C(=O)NC(C)(C)C)CCS1(=O)=O` showed an IC95 of 44 nM. Besides, in data set [2], the pIC50 is 8.85.

In turn, `C[C@H]1OCC[C@H]1OC(=O)N[C@@H](CSc1ccccc1)[C@H](O)CN1C[C@H]2CCS[C@H]2C[C@H]1C(=O)NC(C)(C)C` had an IC95 in data set [1] of 2560 nM. The compound further had a pIC50 in [2] of 8.52.

`C[C@@H]1[C@@H](OC(=O)N[C@@H](CSc2ccccc2)[C@H](O)CN2C[C@H]3CCS[C@H]3C[C@H]2C(=O)NC(C)(C)C)CCS1(=O)=O` returned an IC95 in data set [1] of 45 nM. The pIC50 in data set [2] is 8.28.

The compound `CC(C)[C@H]1[C@@H](OC(=O)N[C@@H](Cc2ccccc2)[C@H](O)CN2C[C@H]3CCS[C@H]3C[C@H]2C(=O)NC(C)(C)C)CCS1(=O)=O` showed an IC95 in data set [1] of 77 nM. The pIC50 in [2] is 8.59.

As for `C[C@H]1[C@@H](OC(=O)N[C@@H](CSc2ccccc2)[C@H](O)CN2C[C@H]3CCS[C@H]3C[C@H]2C(=O)NC(C)(C)C)CCS1(=O)=O`, the half-life – broadly, how long it takes for the measured level to halve – in data set [3] was determined as 1.55 h. In data set [4], the bioavailability (commonly the share of a dose that reaches the circulation, judged against a reference dose that is usually intravenous) amounted to 7.4%. Moreover, the Duration in data set [5] was 6 h. Also, the Cmax in data set [6] was 200 ng/mL; in [7] it was 1020 ng/mL. This compound came in with an IC95 in data set [1] of 31 nM. The pIC50 in [2] is 9.40.

Take `CC(C)[C@H]1SCC[C@H]1OC(=O)N[C@@H](Cc1ccccc1)[C@H](O)CN1C[C@H]2CCS[C@H]2C[C@H]1C(=O)NC(C)(C)C`: the 95% effect level in [1] (IC95) was put at 85 nM. Further, in [2], the pIC50 was 9.59.

`CC(C)[C@@H]1[C@H](OC(=O)N[C@@H](CSc2ccccc2)[C@H](O)CN2C[C@H]3CCS[C@H]3C[C@H]2C(=O)NC(C)(C)C)CCS1(=O)=O` registered a half-life in data set [3] of 1.4 h. For the same compound, in data set [4], the bioavailability came to 3.5%. In addition, in [5], the Duration turned out to be 3 h. Further, the Cmax in data set [6] was 200 ng/mL; in data set [7], 1020 ng/mL. Moreover, the IC95 in [1] is 9 nM.

On to `C[C@@H]1[C@H](OC(=O)N[C@@H](CSc2ccccc2)[C@H](O)CN2C[C@H]3CCS[C@H]3C[C@H]2C(=O)NC(C)(C)C)CCS1(=O)=O`, for which the Cmax stood at 200 ng/mL in [6] and 1020 ng/mL in data set [7]. Besides, the Duration in data set [8] was found to be 5 h. This compound yielded a half-life in data set [9] of 2.53 h. For the same compound, the bioavailability in data set [10] was 6.3%. The IC95 in data set [1] is 19 nM. Also, the pIC50 in data set [2] is 9.12.

Regarding `C[C@@H]1OCC[C@@H]1OC(=O)N[C@@H](CSc1ccccc1)[C@H](O)CN1C[C@H]2CCS[C@H]2C[C@H]1C(=O)NC(C)(C)C`, the 95% effect level in data set [1] (IC95) was put at 162 nM. Moreover, the pIC50 in data set [2] is 9.55.
